Test results from ChEMBL document CHEMBL1141601, “Exploring the molecular basis of action of the passive antiglucocorticoid 21-hydroxy-6,19-epoxyprogesterone” (J Med Chem, 2008).
Calls of active or inactive are those of the source.

How the values were obtained:
Liver = assay: Effect on increase in glycogen deposition in rat liver; format: functional, tissue-based
[1] = target: T1, Glucocorticoid receptor (Homo sapiens) (UniProt P04150); assay: Activity at GR expressed in mouse L929 cells at 10 uM by transactivation assay relative to control; format: cell-based
T1 sequence (whole entry): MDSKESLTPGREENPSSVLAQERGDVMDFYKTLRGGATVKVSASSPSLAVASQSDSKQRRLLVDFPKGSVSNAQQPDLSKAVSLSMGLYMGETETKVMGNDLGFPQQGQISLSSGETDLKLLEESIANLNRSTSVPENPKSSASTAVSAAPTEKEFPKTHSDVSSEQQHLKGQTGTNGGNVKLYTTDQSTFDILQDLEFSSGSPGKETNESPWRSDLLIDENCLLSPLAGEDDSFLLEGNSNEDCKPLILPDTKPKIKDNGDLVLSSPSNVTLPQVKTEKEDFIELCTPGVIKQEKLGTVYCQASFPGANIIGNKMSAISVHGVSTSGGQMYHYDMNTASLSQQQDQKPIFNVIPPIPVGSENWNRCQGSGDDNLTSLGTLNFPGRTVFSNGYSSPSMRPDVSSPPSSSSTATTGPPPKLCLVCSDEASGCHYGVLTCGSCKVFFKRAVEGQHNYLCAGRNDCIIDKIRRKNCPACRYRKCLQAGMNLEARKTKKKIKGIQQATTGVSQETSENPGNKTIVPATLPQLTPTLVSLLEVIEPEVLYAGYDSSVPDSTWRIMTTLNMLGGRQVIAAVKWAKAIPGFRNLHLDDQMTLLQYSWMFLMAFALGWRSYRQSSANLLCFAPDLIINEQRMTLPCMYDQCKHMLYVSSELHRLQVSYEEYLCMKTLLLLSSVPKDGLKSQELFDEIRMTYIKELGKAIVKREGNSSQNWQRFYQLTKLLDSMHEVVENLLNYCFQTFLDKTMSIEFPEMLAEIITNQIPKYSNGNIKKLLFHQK

[2] = target: T2, Tyrosine aminotransferase (Homo sapiens) (UniProt P17735); assay: Induction of tyrosine aminotransferase
T2 sequence (whole entry): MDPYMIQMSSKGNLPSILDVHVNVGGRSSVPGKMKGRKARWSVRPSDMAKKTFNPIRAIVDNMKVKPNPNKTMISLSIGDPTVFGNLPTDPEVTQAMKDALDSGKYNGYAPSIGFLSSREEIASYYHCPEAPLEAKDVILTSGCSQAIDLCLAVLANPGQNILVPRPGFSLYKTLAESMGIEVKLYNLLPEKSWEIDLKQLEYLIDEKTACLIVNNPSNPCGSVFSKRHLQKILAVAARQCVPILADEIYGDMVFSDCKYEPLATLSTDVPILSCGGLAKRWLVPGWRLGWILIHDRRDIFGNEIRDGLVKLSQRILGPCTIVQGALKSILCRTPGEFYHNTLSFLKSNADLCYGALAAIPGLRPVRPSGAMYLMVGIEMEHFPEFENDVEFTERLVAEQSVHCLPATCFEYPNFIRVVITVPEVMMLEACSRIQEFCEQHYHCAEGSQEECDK

Measured: Activity

C[C@]12CC[C@H]3[C@@H](CC4OC[C@@]35CCC(=O)C=C45)[C@@H]1CC[C@@H]2C(=O)CO
inactive: all assays above
